Results: PubChem BioAssay (NCI)
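The compound was tested at five concentrations on cells cultured in 96-well plates, with a 48-hour exposure period. Here, GI50 denotes the concentration required for 50% inhibition of growth. TGI: total growth inhibition.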

Key:
Assay in all cases: NCI anticancer screen, dose series, 48 h
NCI-H522 lung = tested on: NCI-H522 lung
HS 578T breast = tested on: HS 578T breast
OVCAR-8 ovarian = tested on: OVCAR-8 ovarian
OVCAR-4 ovarian = tested on: OVCAR-4 ovarian
HOP-62 NSCLC = tested on: HOP-62 NSCLC
U251 CNS = tested on: U251 CNS
PC-3 prostate = tested on: PC-3 prostate
MDA-MB-435 = tested on: MDA-MB-435
SNB-19 CNS = tested on: SNB-19 CNS
HCT-116 colon = tested on: HCT-116 colon

Row | Compound | GI50 (NCI-H522 lung) [µM] | TGI (NCI-H522 lung) [µM] | GI50 (HS 578T breast) [µM] | TGI (HS 578T breast) [µM] | GI50 (OVCAR-8 ovarian) [µM] | TGI (OVCAR-8 ovarian) [µM] | GI50 (OVCAR-4 ovarian) [µM] | TGI (OVCAR-4 ovarian) [µM] | GI50 (HOP-62 NSCLC) [µM] | TGI (HOP-62 NSCLC) [µM] | GI50 (U251 CNS) [µM] | TGI (U251 CNS) [µM] | GI50 (PC-3 prostate) [µM] | TGI (PC-3 prostate) [µM] | GI50 (MDA-MB-435) [µM] | TGI (MDA-MB-435) [µM] | GI50 (SNB-19 CNS) [µM] | TGI (SNB-19 CNS) [µM] | GI50 (HCT-116 colon) [µM] | TGI (HCT-116 colon) [µM]
1 | CC1=C2[C@@H](CC1)[C@]1(C)O[C@@](c3ccccc3)(C[C@H]1OC(=O)CO)[C@H]2OC(=O)/C=C/c1ccccc1 | 16.8 | 45.4 | 0.0309 | 0.961 | 0.354 | 19.9 | 15.2 | 43 | 17.1 | 37.3 | 13.9 | 28.1 | 8.56 | 31.5 | 16.2 | 35.9 | 22.1 | 59.8 | 15.4 | 31.6
2 | COc1ccc2cc1Oc1ccc(cc1)C[C@H]1c3c(cc4c(c3Oc3cc5c(cc3OC)CCN(C)[C@@H]5C2)OCO4)CCN1C | 1.43 | 6.77 | 7.76 | 46.2 | 2.36 | 9.9 | 2.52 | 12.3 | 2.98 | 9.6 | 0.832 | 5.52 | 2.08 | 11.4 | 1.03 | 6.12 | 3.53 | 14.6 | 0.726 | 6.8
3 | O=S(=O)(c1ccc(Cl)cc1)C(Cl)(Cl)Cl | 2.95 | 21 | 2.27 | 29.2 | 3.5 | 35.5 | 2.23 | > 63.3 | 8.12 | > 49.5 | 3.96 | 21.1 | 4.73 | > 62.5 | 0.908 | 4.7 | 15.2 | > 78.1 | 2.43 | 11.3
4 | O=C(O)CN1CCN(CC(=O)O)CC(=O)[O][Hg][O]C(=O)C1 | 6.75 | > 47.6 | > 43.9 | > 71.3 | 22.4 | 49.4 | 17.7 | 34 | 25.1 | > 66.2 | 12.2 | 25.7 | 16.5 | 30.5 | 16.2 | 30.5 | 29.8 | > 100 | 17.9 | 33.7
5 | COc1ccc2c(c1)N(CCO)C1=C(C(=O)OC1)C2c1cccc(F)c1 (stereo not given) | 0.118 | 1.08 | 0.511 | > 50 | 1.24 | > 50 | 1.83 | > 50 |  | > 50 | 0.65 | > 50 | 0.232 | > 50 | 0.112 | 0.348 | 0.288 | > 50 | 0.406 | > 50
6 | O=C1CCC(N2Cc3cc(CNC(=O)C(F)(F)c4ccc(Cl)cc4)ccc3C2=O)C(=O)N1 (stereo not given) | > 66.1 | > 100 | 1.71 | > 100 | 0.243 | > 100 | 1.48 | > 100 | 3.02 | > 100 | > 100 | > 100 | 4.71 | > 100 | > 100 | > 100 | > 87.1 | > 100 | > 100 | > 100
7 | COc1ccc(-c2[nH]c3ccccc3c2-c2ccc(OC)cc2)cc1 | 12 | 40.7 | 4.41 | 43.8 | 10.3 | 35.8 | 7.66 | 23.6 | 10.2 | 26.2 | 4.54 | 16.8 | 4.07 | 25.3 | 1.79 | 4.58 | 5.06 | 20.6 | 3.93 | 14.6
8 | CC(C)C[C@H](NC(=O)CNC(=O)c1cc(Cl)ccc1Cl)B1OC(=O)CC(CC(=O)O)(C(=O)O)O1 (stereo not given in full) | 0.0217 | 0.056 | 0.0524 | 80.7 | 0.066 | 1.44 | 0.0733 | 19 | 0.124 | 1.05 | 0.0874 | 5.64 | 0.105 | 1.82 | 0.0222 | 0.0612 | 0.209 | > 100 | 0.0267 | 0.0711
9 | CCc1ccc2c(c1)N(CCO)C1=C(C(=O)OC1)C2c1cccc(Br)c1 (stereo not given) | 0.173 | 2.06 | 0.468 | 20.9 | 0.847 | 19.6 | 0.738 | 17.3 | 0.462 | 14.5 | 0.494 | 14.5 | 0.491 | 16.2 | 0.0979 | 0.521 | 0.806 | 18.4 | 0.449 | 14
10 | COc1ccc(-c2nc(Nc3cc(C)[nH]n3)c3ccccc3n2)cc1 | 1.67 | 19.8 | 0.678 | 4.6 | 6.16 | 99.8 | 2.34 | > 72.5 | 1.17 | > 26.2 | 1.16 | > 100 | 1.48 | 66.1 | 1.3 | > 100 | 2.88 | > 100 | 0.744 | 17.5
11 | O=C1OC(=O)C(=C\c2ccc3c(c2)OCO3)/C1=C/c1ccc2c(c1)OCO2 |  | > 100 |  | > 100 |  | > 100 |  | > 100 |  | > 100 |  | > 100 |  | > 100 |  | > 100 |  | > 100 |  | > 100
12 | CN1C(=O)N(C)C2C1NN=c1s/c(=C\c3ccc(C(F)(F)F)cc3)c(=O)n12 (stereo not given) | 0.355 | 2.25 | 2.13 | 81.9 | 2.71 | 55.7 | > 100 | > 100 | 1.31 | 20.1 | 0.569 | 14.4 | 0.677 | > 100 | 0.312 | 1.34 | 2.62 | > 100 | 1.55 | > 100
13 | CCCN(CCS(C)(=O)=O)Cc1ccc(-c2ccc3ncnc(Nc4ccc(OCc5cccc(F)c5)c(Cl)c4)c3c2)o1 | 0.525 | > 25 | > 25 | > 25 | > 25 | > 25 | 21.3 | > 25 | > 25 | > 25 | > 25 | > 25 | > 25 | > 25 | > 25 | > 25 | > 25 | > 25 | > 25 | > 25
14 | O=C(/C=C/c1cc2ccccc2[nH]c1=O)/C=C/c1cc2ccccc2[nH]c1=O |  | > 47 | > 39.9 | > 100 | 9.84 | > 72.8 | 19.2 | > 100 | 14.5 | > 76.9 | 4.53 | 12.1 | > 21.5 | > 81.1 |  | > 20 | 21.1 | > 100 | 1.28 | 2.09
15 | Cc1ccc(/C=N\NC(=O)c2[nH]c3ccc(F)cc3c2-c2ccccc2)cc1 | 0.014 | 0.569 | 0.0375 |  | 0.0389 | > 100 | 0.147 | > 100 | 0.0422 | 5.88 | 0.0378 | > 58.9 | 0.0345 | 20.6 | 0.0217 | 0.0495 | 0.0493 | > 100 | 0.027 | 0.855
16 | O=C(/C=C/c1ccccc1)CCN1CCOCC1 |  | 8.13 |  | > 88.5 |  | 38.5 |  | 42.5 |  | 64 |  | 31.7 |  | 31.5 |  | 30.9 |  | 39.9 |  | 28
17 | O=c1[nH]c(=O)n(C2CC(O)C(COP(=O)(OCc3ccc([N+](=O)[O-])o3)N(CCCCCl)CC(O)CO)O2)cc1F (stereo not given) | 0.985 | 77.4 | 0.824 | > 100 | 0.182 | > 100 | > 100 | > 100 | 0.412 | > 26.2 |  | > 100 | 0.154 | > 100 | 1.26 | > 100 | > 20.3 | > 100 | 0.999 | > 100
18 | CNCCCNCCCCNCCCN1C(=O)c2ccc3c4c(ccc(c24)C1=O)C(=O)N(CCCNCc1ccccc1OC)C3=O | 5.62 | 27.2 | 2.9 | 22 | 2.89 | 54.6 | 1.7 | 9.19 | 2.33 | 25.6 | 3.24 | 18 | 7.45 | 44.4 | 0.795 | 6.21 | 3.79 | 17.2 | 2.04 | 21.1
19 | CN1CCN(C(=O)c2cc(-c3ccc4ncnc(N5CCc6cc(F)c(Cl)cc65)c4c3)cnc2N)CC1 | 0.346 | 3.22 | 0.116 | 0.491 | 0.29 | 24.1 | 0.3 | 4.22 | 0.244 | 4.46 | 0.348 | 5.71 | 0.176 | 3.78 | 0.201 | 1.2 | 0.413 | 10.5 | 0.237 | 2.89
20 | COc1cc2c(c(OC)c1OC)-c1ccc(SC)c(=O)cc1C(NC(=O)c1ccccc1)CC2 (stereo not given) |  | < 0.0316 |  | 5.34 |  | 24.6 |  | 22.2 |  | 21.1 |  | 4.18 |  | > 31.6 |  | < 0.01 |  | 29.1 |  | 0.188
21 | COc1ccc(-c2cc(-c3ccc(C)cc3)nc3nc(=S)[nH]c(N)c23)cc1 | 19.3 | 39 | 17.9 | 46.9 | 21.5 | 86.4 | 74.3 | > 100 | 18.8 | 40.6 | 15.2 | 29.3 | 37.7 | > 100 | 17.6 | 36.9 | 37.6 | > 100 | 11.3 | 26.6
22 | C/C(=C\c1ccc2ccccc2c1)[N+](=O)[O-] | 1.58 | 3 | 2.54 | 9.26 | 1.73 | 3.17 | 1.65 | 3.01 | 2.31 | 5.49 | 1.77 | 3.6 | 1.89 | 3.89 | 1.81 | 3.6 | 6.15 | 19.7 | 2.19 | 5.58
23 | O=C1OCC2=C1C(c1ccc(Cl)c(Cl)c1)c1cc3c(cc1N2CCO)OCCO3 (stereo not given) | 0.0852 | 0.283 | 0.273 | > 37.6 | 0.389 | 7.24 | 0.382 | > 50 | 0.295 | 15.1 | 0.206 | 12.7 | 0.189 | 8.66 | 0.102 | 0.468 | 0.327 | > 50 | 0.213 | 8.78
24 | O=C1/C(=C/c2ccccc2[N+](=O)[O-])Cc2ccccc21 | 1.7 | 3.13 | 3.7 | > 100 | 2.12 | 5.4 | 2.95 | 29.4 | 3 | 17.2 | 2.89 | 10.6 | 1.83 | 5.33 | 3.06 | 11.8 | 10.6 | 41.2 | 1.23 | 2.57
25 | CN[C@@H](C)C(=O)N[C@H](C(=O)N1CCC[C@H]1C(=O)Nc1sc(-c2ncco2)nc1-c1ccccc1)C1CCCCC1 | 10.2 | 28.1 | 50 | > 100 | 17.2 | 42.7 | 3.26 | > 100 | > 92.2 | > 100 | 26.9 | > 77.7 | 42 | > 100 | 26.3 | > 87.9 | 30 | 98.7 | 25.6 | > 85.4
